One test concerns the target HIV integrase (Human immunodeficiency virus type 1 group M subtype B, UniProt P04585). Kind of test: biochemical.
In the next test the test system is HIV-IIIb. Kind of test: Antiviral assay in MT-4 cells infected with HIV-IIIb. In kind it is cell-based. Conditions: MT4, 120 h; MT-4 cells, HIV-IIIb, 5 days; read-out: EC50 Range MT-4. Here is the method: See: Wolfe, etal J. Virol.
Antiviral Assays in MT2 and MT4 Cells
For the antiviral assay utilizing MT-2 cells, 50 μl of 2× test concentration of 5-fold serially diluted compound in culture medium with 10% FBS was added to each well of a 96-well plate (9 concentrations) in triplicate. MT-2 cells were infected with HIV-IIIb at a multiplicity of infection (m.o.i) of 0.01 for 3 hours. Fifty microliters of infected cell suspension in culture medium with 10% FBS (˜1.5×10^4 cells) was then added to each well containing 50 μl of diluted compound. The plates were then incubated at 37° C. for 5 days. For the antiviral assay utilizing MT-4 cells, 20 μl of 2× test concentration of 5-fold serially diluted compound in culture medium with 10% FBS was added to each well of a 384-well plate (7 concentrations) in triplicate. MT-4 cells were next mixed with HIV-IIIb at an m.o.i. of 0.1 and 20 μl of virus/cell mixture (˜2000 cells) was immediately added to each well containing 20 μl of diluted compound. The plates were then incubated at 37° C. for 5 days. After 5 days of incubation, 100 μl of CellTiter-Glo™ Reagent (catalog # G7571, Promega Biosciences, Inc., Madison, Wis.) was added to each well containing MT-2 cells and 40 μl to each well containing MT-4 cells. Cell lysis was carried out by incubating at room temperature for 10 min and then chemiluminescence was read.

Where only a bound is given, the exact number is not on record here.

Protocol for HIV integrase: Representative compounds of the invention were tested for biological activity by methods including anti-HIV assay, measuring inhibition of HIV-integrase strand transfer catalysis, and cytotoxicity.
HIV Integrase Assay (IC50 Determination)
The HIV Integrase assay is carried out in Reacti-Bind High Binding Capacity Streptavidin coated plates (Pierce # 15502) in 100 μl reactions. The wells of the plate are rinsed once with PBS. Each well is then coated at room temperature for 1 h with 100 μl of 0.14 μM Donor DNA with the following sequence:
After coating, the plate was washed twice with PBS. 3′processing of the Donor DNA is started by adding 80 μl of Integrase/buffer mixture (25 mM HEPES, pH 7.3, 12.5 mM DTT, 93.75 mM NaCl, 12.5 mM MgCl2, 1.25% Glycerol, 0.3125 uM integrase) to each well. 3′processing is allowed to proceed for 30 min at 37° C., after which, 10 μl of test compound and 10 μl of 2.5 uM DIG-labeled Target DNA with the following sequence:
are added to each well to allow strand transfer to proceed for 30 min at 37° C. The plate is then washed three times with 2×SSC for 5 min and rinsed once with PBS. For detection of integrated product, 100 μl of a 1/2000 dilution of HRP-conjugated anti-DIG antibody (Pierce #31468) are added to each well and incubated for 1 hour. The plate was then washed three times for 5 min each, with 0.05% Tween-20 in PBS. For signal development and amplification, 100 μl of SuperSignal ELISA Femto Substrate (Pierce #37075) are added to each well. Chemiluminescence (in relative light units) is read immediately at 425 nm in the SPECTRAmax GEMINI Microplate Spectrophotometer using the end point mode at 5 sec per well.
For IC50 determinations, eight concentrations of test compounds in a 1/2.2 dilution series are used.

Take `CC(C)C(=O)N(C)c1c2c(c(O)c3ncccc13)C(=O)N(Cc1ccc(F)cc1)C2` [Compound 69, N-(7-(4-fluorobenzyl)-9-hydroxy-8-oxo-7,8-dihydro-6H-pyrrolo[3,4-g]quinolin-5-yl)-N-methylisobutyramide]: at HIV integrase, the IC50 was less than 60 nM. The EC50 in the test with HIV-IIIb was less than 60 nM.

Take `CN(c1c2c(c(O)c3ncccc13)C(=O)N(Cc1ccc(F)cc1)C2(C)C)S(C)(=O)=O` [Compound 71, N-(7-(4-fluorobenzyl)-9-hydroxy-6,6-dimethyl-8-oxo-7,8-dihydro-6H-pyrrolo[3,4-g]quinolin-5-yl)-N-methylmethanesulfonamide]: at HIV integrase, the IC50 fell in the range of 60 to 1000 nM. Moreover, the EC50 in the test with HIV-IIIb was less than 60 nM.

`CCN(c1c2c(c(O)c3ncccc13)C(=O)N(Cc1ccc(F)cc1)C2)S(C)(=O)=O` [Compound 78, N-ethyl-N-(7-(4-fluorobenzyl)-9-hydroxy-8-oxo-7,8-dihydro-6H-pyrrolo[3,4]quinolin-5-yl)methanesulfonamide] came in with an IC50 on HIV integrase of less than 60 nM. Moreover, in the test on HIV-IIIb, the concentration for a half-maximal effect (EC50) was less than 60 nM.

Consider `CNC(=O)c1cc(F)ccc1CN1Cc2c(c(O)c3ncccc3c2N(C)S(C)(=O)=O)C1=O` [Compound 88], for which the IC50 on HIV integrase was 60 to 1000 nM. Further, in the test with HIV-IIIb, the EC50 was less than 60 nM.

The compound `CN(C)C(=O)c1cc(F)ccc1CN1Cc2c(c(O)c3ncccc3c2N(C)S(C)(=O)=O)C1=O` [Compound 90, 5-fluoro-2-((9-hydroxy-5-(N-methylmethylsulfonamido)-8-oxo-6H-pyrrolo[3,4-g]quinolin-7(8H)-yl)methyl)-N,N-dimethylbenzamide] displayed an IC50 against HIV integrase of 60 to 1000 nM. Besides, the EC50 with HIV-IIIb is less than 60 nM.

Turning to `CN(c1c2c(c(O)c3ncccc13)C(=O)N(Cc1ccncc1)C2)S(C)(=O)=O` [Compound 92, N-(9-hydroxy-8-oxo-7-(pyridin-4-ylmethyl)-7,8-dihydro-6H-pyrrolo[3,4-g]quinolin-5-yl)-N-methylmethanesulfonamide], the 50% inhibitory concentration (IC50) against HIV integrase is more than 1000 nM. Also, the EC50 in the test on HIV-IIIb is more than 1000 nM.

Regarding `CN(c1c2c(c(O)c3ncccc13)C(=O)N(Cc1ccccn1)C2)S(C)(=O)=O` [Compound 94, N-(9-hydroxy-8-oxo-7-(pyridin-2-ylmethyl)-7,8-dihydro-6H-pyrrolo[3,4-g]quinolin-5-yl)-N-methylmethanesulfonamide], the IC50 at HIV integrase was 60 to 1000 nM. In the test with HIV-IIIb, the EC50 is less than 60 nM.

The compound `CN(c1c2c(c(O)c3ncccc13)C(=O)N(Cc1ccc(F)nc1)C2)S(C)(=O)=O` [Compound 97, N-(7-((6-fluoropyridin-3-yl)methyl)-9-hydroxy-8-oxo-7,8-dihydro-6H-pyrrolo[3,4-g]quinolin-5-yl)-N-methylmethanesulfonamide] came in with a 50% inhibitory concentration (IC50) at HIV integrase of 60 to 1000 nM. Further, the EC50 in the test on HIV-IIIb was 60 to 1000 nM.

Turning to `CN(c1c2c(c(O)c3ncccc13)C(=O)N(Cc1ccc(F)cc1C#N)C2)S(C)(=O)=O` [Compound 100, N-(7-(2-cyano-4-fluorobenzyl)-9-hydroxy-8-oxo-7,8-dihydro-6H-pyrrolo[3,4-g]quinolin-5-yl)-N-methylmethanesulfonamide], the IC50 at HIV integrase lay in the range of 60 to 1000 nM. In the test on HIV-IIIb, the EC50 was 60 to 1000 nM.

In turn, `CN(c1c2c(c(O)c3ncccc13)C(=O)N(Cc1ccc(F)cc1N)C2)S(C)(=O)=O` [Compound 103, N-(7-(2-amino-4-fluorobenzyl)-9-hydroxy-8-oxo-7,8-dihydro-6H-pyrrolo[3,4-g]quinolin-5-yl)-N-methylmethanesulfonamide] displayed a concentration for half-maximal inhibition (IC50) on HIV integrase of less than 60 nM. For the same compound, the EC50 in the test on HIV-IIIb was less than 60 nM.

On HIV integrase, `CN(c1c2c(c(O)c3ncccc13)C(=O)N(Cc1ccc(F)cc1S(C)(=O)=O)C2)S(C)(=O)=O` [Compound 106, N-(7-(4-fluoro-2-(methylsulfonyl)benzyl)-9-hydroxy-8-oxo-7,8-dihydro-6H-pyrrolo[3,4-g]quinolin-5-yl)-N-methylmethanesulfonamide] showed an IC50 of 60 to 1000 nM. Moreover, in the test on HIV-IIIb, the EC50 was less than 60 nM.

Consider `CN(c1c2c(c(O)c3ncccc13)C(=O)N(Cc1ccc(F)cc1S(=O)(=O)N(C)C)C2)S(C)(=O)=O` [Compound 109, 5-fluoro-2-((9-(hydroxy)-5-(N-methylmethylsulfonamido)-8-oxo-6H-pyrrolo[3,4-g]quinolin-7(8H)-yl)methyl)-N,N-dimethylbenzenesulfonamide], for which, on HIV integrase, the IC50 is 60 to 1000 nM. In addition, in the test on HIV-IIIb, the EC50 was less than 60 nM.

Take `CCOC(=O)N(C)c1c2c(c(O)c3ncccc13)C(=O)N(Cc1ccc(F)cc1)C2` [Compound 112, ethyl 7-(4-fluorobenzyl)-9-(hydroxy)-8-oxo-7,8-dihydro-6H-pyrrolo[3,4-g]quinolin-5-yl(methyl)carbamate]: the IC50 on HIV integrase was less than 60 nM. Further, the EC50 with HIV-IIIb was less than 60 nM.

Take `CCOC(=O)N(C)c1c2c(c(O)c3ncccc13)C(=O)N(Cc1ccc(F)cc1)C2C` (centres unmarked) [Compound 114, ethyl 7-(4-fluorobenzyl)-9-hydroxy-6-methyl-8-oxo-7,8-dihydro-6H-pyrrolo[3,4-g]quinolin-5-yl(methyl)carbamate]: on HIV integrase, the IC50 fell in the range of 60 to 1000 nM. Further, the EC50 in the test with HIV-IIIb lay within 60 to 1000 nM.

`CCOC(=O)N(C)c1c2c(c(O)c3ncccc13)C(=O)N(Cc1ccc(F)cc1)C2(C)C` [Compound 115, ethyl 7-(4-fluorobenzyl)-9-hydroxy-6,6-dimethyl-8-oxo-7,8-dihydro-6H-pyrrolo[3,4-g]quinolin-5-yl(methyl)carbamate] came in with an IC50 on HIV integrase of 60 to 1000 nM. Further, the EC50 in the test on HIV-IIIb is more than 1000 nM.

At HIV integrase, `CS(=O)(=O)Nc1c2c(c(O)c3ncccc13)C(=O)N(Cc1ccc(F)cc1)C2` [Compound 125, N-(7-(4-fluorobenzyl)-9-hydroxy-8-oxo-7,8-dihydro-6H-pyrrolo[3,4-g]quinolin-5-yl)methanesulfonamide] had an IC50 of less than 60 nM. For the same compound, in the test on HIV-IIIb, the EC50 lay in the range of 60 to 1000 nM.

As to `CN(c1c2c(c(O)c3ncccc13)C(=O)N(Cc1ccc(F)cc1)C2)S(N)(=O)=O` [Compound 132, N-(7-(4-fluorobenzyl)-9-hydroxy-8-oxo-7,8-dihydro-6H-pyrrolo[3,4-g]quinolin-5-yl)-N-methylsulfamide], the IC50 on HIV integrase is less than 60 nM. Also, the EC50 in the test on HIV-IIIb was less than 60 nM.

On to `CN(Cc1ccccc1)S(=O)(=O)N(C)c1c2c(c(O)c3ncccc13)C(=O)N(Cc1ccc(F)cc1)C2` [Compound 135, N′-benzyl-N′-methyl-N-(7-(4-fluorobenzyl)-9-hydroxy-8-oxo-7,8-dihydro-6H-pyrrolo[3,4-g]quinolin-5-yl)-N-methylsulfamide], for which the IC50 on HIV integrase fell in the range of 60 to 1000 nM. For the same compound, the EC50 in the test with HIV-IIIb fell in the range of 60 to 1000 nM.

`CN(Cc1ccncc1)S(=O)(=O)N(C)c1c2c(c(O)c3ncccc13)C(=O)N(Cc1ccc(F)cc1)C2` [Compound 136, N-(7-(4-fluorobenzyl)-9-hydroxy-8-oxo-7,8-dihydro-6H-pyrrolo[3,4-g]quinolin-5-yl)-N-methyl-N′-methyl-N′-(pyridin-4-ylmethyl)sulfamide] showed a half-maximal inhibitory concentration (IC50) against HIV integrase of 60 to 1000 nM. Besides, in the test on HIV-IIIb, the EC50 lay in the range of 60 to 1000 nM.

In the case of `COc1ccc(CN2Cc3c(c(O)c4ncccc4c3N(C)S(C)(=O)=O)C2=O)c(OC)c1` [Compound 143, N-(7-(2,4-dimethoxybenzyl)-9-hydroxy-8-oxo-7,8-dihydro-6H-pyrrolo[3,4-g]quinolin-5-yl)-N-methylmethanesulfonamide], at HIV integrase, the IC50 lay within 60 to 1000 nM. In addition, the EC50 in the test on HIV-IIIb is 60 to 1000 nM.

On to `CN(c1c2c(c(O)c3ncccc13)C(=O)N(Cc1ccc(F)cc1F)C2)S(C)(=O)=O` [Compound 145, N-(7-(2,4-difluorobenzyl)-9-hydroxy-8-oxo-7,8-dihydro-6H-pyrrolo[3,4-g]quinolin-5-yl)-N-methylmethanesulfonamide], for which the IC50 against HIV integrase was less than 60 nM. Besides, the EC50 in the test on HIV-IIIb is less than 60 nM.

At HIV integrase, `CN(c1c2c(c(O)c3ncccc13)C(=O)N(Cc1ccc(F)cc1Cl)C2)S(C)(=O)=O` [Compound 147, N-(7-(2-chloro-4-fluorobenzyl)-9-hydroxy-8-oxo-7,8-dihydro-6H-pyrrolo[3,4-g]quinolin-5-yl)-N-methylmethanesulfonamide] returned an IC50 of less than 60 nM. The EC50 with HIV-IIIb was less than 60 nM.

Regarding `CN(c1c2c(c(O)c3ncccc13)C(=O)N(Cc1ccc(F)cn1)C2)S(C)(=O)=O` [Compound 151, N-(7-((5-fluoropyridin-2-yl)methyl)-9-hydroxy-8-oxo-7,8-dihydro-6H-pyrrolo[3,4-g]quinolin-5-yl)-N-methylmethanesulfonamide], the IC50 against HIV integrase was 60 to 1000 nM. Also, the EC50 in the test with HIV-IIIb was in the range of 60 to 1000 nM.

Compound `CN(c1c2c(c(O)c3ncccc13)C(=O)N(Cc1ccc(F)cc1)C2=O)S(C)(=O)=O` [Compound 152, N-(7-(4-fluorobenzyl)-9-hydroxy-6,8-dioxo-7,8-dihydro-6H-pyrrolo[3,4-g]quinolin-5-yl)-N-methylmethanesulfonamide] gave an IC50 on HIV integrase of less than 60 nM. In addition, in the test with HIV-IIIb, the EC50 is more than 1000 nM.

Regarding `CN(C)c1cccc2c(S(=O)(=O)N(C)c3c4c(c(O)c5ncccc35)C(=O)N(Cc3ccc(F)cc3)C4)cccc12` [Compound 154, 5-(dimethylamino)-N-(7-(4-fluorobenzyl)-9-hydroxy-8-oxo-7,8-dihydro-6H-pyrrolo[3,4-g]quinolin-5-yl)-N-methylnaphthalene-1-sulfonamide], the IC50 on HIV integrase was in the range of 60 to 1000 nM. Moreover, in the test on HIV-IIIb, the EC50 is more than 1000 nM.

One may read the IC50 as the concentration that gives 50% inhibition. A high value points to a need for much substance. The EC50 is the concentration that produces a half-maximal response.
